Data as given in ChEMBL document CHEMBL4138123, “Design, synthesis and biological evaluation of novel pyrazolochalcones as potential modulators of PI3K/Akt/mTOR pathway and inducers of apoptosis in breast cancer cells” (Eur J Med Chem, 2017).

Experiments:
Type in all cases: functional
[1] = tested on: U-251; assay: Cytotoxicity against human U251 cells assessed as growth inhibition after 48 hrs by sulforhodamine B assay; details: U-251, 48 h
[2] = tested on: SK-OV-3; assay: Cytotoxicity against human SKOV3 cells assessed as cell growth at 0.1 uM after 48 hrs by sulforhodamine B assay relative to control; details: SK-OV-3, 48 h, read-out: Activity
[3] = tested on: KM12; assay: Cytotoxicity against human KM12 cells assessed as growth inhibition after 48 hrs by sulforhodamine B assay; details: KM12, 48 h
[4] = tested on: SF-268; assay: Cytotoxicity against human SF268 cells assessed as growth inhibition after 48 hrs by sulforhodamine B assay; details: SF-268, 48 h; for CC50: read-out: LC50 (the source's name)
[5] = tested on: OVCAR-5; assay: Cytotoxicity against human OVCAR5 cells assessed as growth inhibition after 48 hrs by sulforhodamine B assay; details: OVCAR-5, 48 h
[6] = tested on: NCI-H522; assay: Cytotoxicity against human NCI-H522 cells assessed as cell growth at 10 uM after 48 hrs by sulforhodamine B assay relative to control; details: NCI-H522, 48 h, read-out: Activity
[7] = tested on: HT-29; assay: Cytotoxicity against human HT-29 cells assessed as cell growth at 0.01 uM after 48 hrs by sulforhodamine B assay relative to control; details: HT-29, 48 h, read-out: Activity
[8] = tested on: NCI/ADR-RES; assay: Cytotoxicity against human NCI/ADR-RES cells assessed as growth inhibition after 48 hrs by sulforhodamine B assay
[9] = tested on: PC-3; assay: Cytotoxicity against human PC3 cells assessed as growth inhibition after 48 hrs by sulforhodamine B assay; details: PC-3, 48 h
[10] = tested on: MDA-MB-231; assay: Cytotoxicity against human MDA-MB-231 cells assessed as cell growth at 0.1 uM after 48 hrs by sulforhodamine B assay relative to control; details: MDA-MB-231, 48 h, read-out: Activity
[11] = tested on: SNB-19; assay: Cytotoxicity against human SNB19 cells assessed as cell growth at 0.01 uM after 48 hrs by sulforhodamine B assay relative to control; details: SNB-19, 48 h, read-out: Activity
[12] = tested on: RXF 393; assay: Cytotoxicity against human RXF393 cells assessed as cell growth at 0.01 uM after 48 hrs by sulforhodamine B assay relative to control; details: RXF 393, 48 h, read-out: Activity
[13] = tested on: BT-549; assay: Cytotoxicity against human BT549 cells assessed as growth inhibition after 48 hrs by sulforhodamine B assay; details: BT-549, 48 h
[14] = tested on: HT-29; assay: Cytotoxicity against human HT-29 cells assessed as cell growth at 1 uM after 48 hrs by sulforhodamine B assay relative to control; details: HT-29, 48 h, read-out: Activity
[15] = tested on: CCRF-CEM; assay: Cytotoxicity against human CCRF-CEM cells assessed as cell growth at 0.01 uM after 48 hrs by sulforhodamine B assay relative to control; details: read-out: Activity
[16] = tested on: SK-OV-3; assay: Cytotoxicity against human SKOV3 cells assessed as cell growth at 10 uM after 48 hrs by sulforhodamine B assay relative to control; details: SK-OV-3, 48 h, read-out: Activity
[17] = tested on: NCI-H226; assay: Cytotoxicity against human NCI-H226 cells assessed as cell growth at 0.01 uM after 48 hrs by sulforhodamine B assay relative to control; details: NCI-H226, 48 h, read-out: Activity
[18] = tested on: CCRF-CEM; assay: Cytotoxicity against human CCRF-CEM cells assessed as cell growth at 0.1 uM after 48 hrs by sulforhodamine B assay relative to control; details: read-out: Activity
[19] = tested on: UACC-257; assay: Cytotoxicity against human UACC257 cells assessed as cell growth at 1 uM after 48 hrs by sulforhodamine B assay relative to control; details: UACC-257, 48 h, read-out: Activity
[20] = tested on: RXF 393; assay: Cytotoxicity against human RXF393 cells assessed as cell growth at 1 uM after 48 hrs by sulforhodamine B assay relative to control; details: RXF 393, 48 h, read-out: Activity
[21] = tested on: UACC-257; assay: Cytotoxicity against human UACC257 cells assessed as cell growth at 0.1 uM after 48 hrs by sulforhodamine B assay relative to control; details: UACC-257, 48 h, read-out: Activity
[22] = tested on: RPMI-8226; assay: Cytotoxicity against human RPMI8226 cells assessed as cell growth at 10 uM after 48 hrs by sulforhodamine B assay relative to control; details: RPMI-8226, 48 h, read-out: Activity
[23] = tested on: KM12; assay: Cytotoxicity against human KM12 cells assessed as cell growth at 1 uM after 48 hrs by sulforhodamine B assay relative to control; details: KM12, 48 h, read-out: Activity
[24] = tested on: HT-29; assay: Cytotoxicity against human HT-29 cells assessed as growth inhibition after 48 hrs by sulforhodamine B assay; details: HT-29, 48 h
[25] = tested on: Hs-578T; assay: Cytotoxicity against human Hs 578T cells assessed as growth inhibition after 48 hrs by sulforhodamine B assay
[26] = tested on: NCI-H226; assay: Cytotoxicity against human NCI-H226 cells assessed as growth inhibition after 48 hrs by sulforhodamine B assay; details: NCI-H226, 48 h
[27] = tested on: 786-0; assay: Cytotoxicity against human 786-0 cells assessed as cell growth at 1 uM after 48 hrs by sulforhodamine B assay relative to control; details: 786-0, 48 h, read-out: Activity
[28] = tested on: MDA-MB-435; assay: Cytotoxicity against human MDA-MB-435 cells assessed as cell growth at 100 uM after 48 hrs by sulforhodamine B assay relative to control; details: MDA-MB-435, 48 h, read-out: Activity
[29] = tested on: OVCAR-8; assay: Cytotoxicity against human OVCAR8 cells assessed as cell growth at 0.1 uM after 48 hrs by sulforhodamine B assay relative to control; details: OVCAR-8, 48 h, read-out: Activity
[30] = tested on: RXF 393; assay: Cytotoxicity against human RXF393 cells assessed as cell growth at 100 uM after 48 hrs by sulforhodamine B assay relative to control; details: RXF 393, 48 h, read-out: Activity
[31] = tested on: HT-29; assay: Cytotoxicity against human HT-29 cells assessed as cell growth at 10 uM after 48 hrs by sulforhodamine B assay relative to control; details: HT-29, 48 h, read-out: Activity
[32] = tested on: K562; assay: Cytotoxicity against human K562 cells assessed as cell growth at 0.1 uM after 48 hrs by sulforhodamine B assay relative to control; details: K562, 48 h, read-out: Activity
[33] = tested on: KM12; assay: Cytotoxicity against human KM12 cells assessed as cell growth at 10 uM after 48 hrs by sulforhodamine B assay relative to control; details: KM12, 48 h, read-out: Activity
[34] = tested on: HCT-116; assay: Cytotoxicity against human HCT116 cells assessed as cell growth at 10 uM after 48 hrs by sulforhodamine B assay relative to control; details: HCT-116, 48 h, read-out: Activity
[35] = tested on: A498; assay: Cytotoxicity against human A498 cells assessed as cell growth at 100 uM after 48 hrs by sulforhodamine B assay relative to control; details: A498, 48 h, read-out: Activity
[36] = tested on: UACC-62; assay: Cytotoxicity against human UACC62 cells assessed as cell growth at 1 uM after 48 hrs by sulforhodamine B assay relative to control; details: UACC-62, 48 h, read-out: Activity

Work on `COc1cc(-c2cc(/C=C/C(=O)c3ccc(F)c(F)c3)[nH]n2)cc(OC)c1OC` yielded an LC50 [1] of over 100 µM, a TGI [1] of 15.7 µM and a growth at 0.1 µM [2] of 99%. The LC50 [3] was over 100 µM, the TGI [3] was 11.4 µM and the TGI [4] was over 100 µM. The CC50 [4] was over 100 µM, the LC50 [5] was over 100 µM and the TGI [5] was 33.8 µM. The growth at 10 µM [6] was -38%, the growth at 0.01 µM [7] was 104% and the LC50 [8] was over 100 µM. For the same compound, the TGI [8] was 50.5 µM, the LC50 [9] was over 100 µM and the TGI [9] was 5.72 µM. For the same compound, the growth at 0.1 µM [10] was 96%, the growth at 0.01 µM [11] was 89% and the growth at 0.01 µM [12] was 94%. The LC50 (concentration killing 50% of cells) [13] was 79.5 µM, the TGI [13] was 19.3 µM and the growth at 1 µM [14] was 103%. It also gave a growth at 0.01 µM [15] of 99%, a growth at 10 µM [16] of 17% and a growth at 0.01 µM [17] of 99%. For the same compound, the growth at 0.1 µM [18] was 96%, the growth at 1 µM [19] was 72% and the growth at 1 µM [20] was 82%. The growth at 0.1 µM [21] was 92%, the growth at 10 µM [22] was -21% and the growth at 1 µM [23] was 95%. For the same compound, the LC50 [24] was 40.8 µM, the TGI [24] was 6.46 µM and the LC50 [25] was over 100 µM. The TGI [25] was 36.8 µM, the LC50 (concentration killing 50% of cells) [26] was 66 µM and the TGI [26] was 15.8 µM. It also gave a growth at 1 µM [27] of 93%, a growth at 100 µM [28] of -34% and a growth at 0.1 µM [29] of 96%. The growth at 100 µM [30] was -61%, the growth at 10 µM [31] was -24% and the growth at 0.1 µM [32] was 109%. For the same compound, the growth at 10 µM [33] was 3%, the growth at 10 µM [34] was 9% and the growth at 100 µM [35] was -40%. It also gave a growth at 1 µM [36] of 88%.
`COc1ccc(C(=O)/C=C/c2cc(-c3ccc4c(c3)OCO4)n[nH]2)cc1OC` was tested, and the LC50 [1] was 23.8 µM, the TGI [1] was 5.37 µM and the growth at 0.1 µM [2] was 99%. For the same compound, the LC50 [3] was 34.9 µM, the TGI [3] was 9.48 µM and the TGI [4] was 7.61 µM. For the same compound, the CC50 [4] was 40.5 µM, the LC50 [5] was over 100 µM and the TGI [5] was 23.2 µM. The growth at 10 µM [6] was -45%, the growth at 0.01 µM [7] was 93% and the GI50 [9] was 2.58 µM. The LC50 [9] was over 100 µM, the TGI [9] was 18.2 µM and the growth at 0.1 µM [10] was 96%. It also gave a growth at 0.01 µM [11] of 91%, a growth at 0.01 µM [12] of 98% and a GI50 [13] of 1.97 µM. For the same compound, the LC50 (concentration killing 50% of cells) [13] was 8.98 µM, the TGI [13] was 4.21 µM and the growth at 1 µM [14] was 93%. It also gave a growth at 0.01 µM [15] of 99%, a growth at 10 µM [16] of 17% and a growth at 0.01 µM [17] of 90%. The growth at 0.1 µM [18] was 99%, the growth at 1 µM [19] was 93% and the growth at 1 µM [20] was 105%. For the same compound, the growth at 0.1 µM [21] was 95%, the growth at 10 µM [22] was -20% and the growth at 1 µM [23] was 94%. The LC50 [24] was over 100 µM, the TGI [24] was 11.3 µM and the GI50 [25] was 2.69 µM. It also gave an LC50 [25] of over 100 µM, a TGI [25] of 8.21 µM and an LC50 (concentration killing 50% of cells) [26] of over 100 µM. It also gave a TGI [26] of 11.2 µM, a growth at 1 µM [27] of 94% and a growth at 100 µM [28] of -50%. For the same compound, the growth at 0.1 µM [29] was 98%, the growth at 100 µM [30] was -95% and the growth at 10 µM [31] was 2%. The growth at 0.1 µM [32] was 96%, the growth at 10 µM [33] was -2% and the growth at 10 µM [34] was -9%. It also gave a growth at 100 µM [35] of -93% and a growth at 1 µM [36] of 98%.
